Experimental data from US12338220B2, “Antiviral pyrazolopiridinone compounds” (Novartis AG, priority 2019, dated 2025).
Read-outs that look alike come from different tables or passages of the source.

Experiments:
[1] = target: CMV-polymerase (Human cytomegalovirus (strain AD169) (HHV-5) (Human herpesvirus 5), UniProt P08546); assay: biochemical
[2] = tested on: CMV; assay: microbe, parasite or virus in culture; type: cell-based; conditions: Human betaherpesvirus 5, 72 h, read-out: CMV-Luc Cellular EC50, NN-NHDF cells, MOI 1, 72 hrs
[3] = target: HSV-polymerase (Human herpesvirus 1 (strain 17) (HHV-1) (Human herpes simplex virus 1), UniProt P04293); assay: biochemical
[4] = CMV-polymerase Biochemical IC50
[5] = read-out: CMV-polymerase Biochemical IC50

Row | SMILES | IC50 [1, 4] [nM] | EC50 [2] [nM] | IC50 [3] [nM] | IC50 [1, 5] [nM]
1 | Cn1nc(C(=O)NCc2ccc(C#N)cc2)c2c1C(=O)N(CC1(S(=O)(=O)C(C)(C)COC(F)CO)CC1)CC2 (single isomer, unassigned) [Example 80, (R)- or (S)-N-(4-Cyanobenzyl)-6-((1-((1-(1-fluoro-2-hydroxyethoxy)-2-methylpropan-2-yl)sulfonyl)cyclopropyl)methyl)-1-methyl-7-oxo-4,5,6,7-tetrahydro-1H-pyrazolo[3,4-c]pyridine-3-carboxamide] | 6 | 36 | 67 | 
2 | Cn1nc(C(=O)NCc2ccc(C#N)cc2)c2c1C(=O)N(CC1(S(=O)(=O)C(C)(C)COC(F)CN)CC1)CC2 (single isomer, unassigned) [Example 83, (R)- or (S)-6-((1-((1-(2-Amino-1-fluoroethoxy)-2-methylpropan-2-yl)sulfonyl)cyclopropyl)methyl)-N-(4-cyanobenzyl)-1-methyl-7-oxo-4,5,6,7-tetrahydro-1H-pyrazolo[3,4-c]pyridine-3-carboxamide] |  |  | 71 | 1
3 | CC(O)COCC(C)(C)S(=O)(=O)C1(CN2CCc3c(C(=O)NCc4ccc(C#N)cc4)nn(C)c3C2=O)CC1 (single isomer, unassigned) [Example 90, (R)- or (S)-N-(4-Cyanobenzyl)-6-((1-((1-(2-hydroxypropoxy)-2-methylpropan-2-yl)sulfonyl)cyclopropyl)methyl)-1-methyl-7-oxo-4,5,6,7-tetrahydro-1H-pyrazolo[3,4-c]pyridine-3-carboxamide] | 7 | 58 | 97 | 
4 | CC(O)COCC(C)(C)S(=O)(=O)C1(CN2CCc3c(C(=O)NCc4ccc(C#N)cc4)nn(C)c3C2=O)CC1 (single isomer, unassigned) [Example 91, (R)- or (S)-N-(4-Cyanobenzyl)-6-((1-((1-(2-hydroxypropoxy)-2-methylpropan-2-yl)sulfonyl)cyclopropyl)methyl)-1-methyl-7-oxo-4,5,6,7-tetrahydro-1H-pyrazolo[3,4-c]pyridine-3-carboxamide] | 5 |  | 69 | 
5 | CC1=NOC(C(C)(C)S(=O)(=O)C2(CN3CCc4c(C(=O)NCc5ccc(C#N)cc5)nn(C)c4C3=O)CC2)C1 (single isomer, unassigned) [Example 111, (R)- or (S)-N-(4-Cyanobenzyl)-1-methyl-6-((1-((2-(3-methyl-4,5-dihydroisoxazol-5-yl)propan-2-yl)sulfonyl)cyclopropyl)methyl)-7-oxo-4,5,6,7-tetrahydro-1H-pyrazolo[3,4-c]pyridine-3-carboxamide] |  |  | 148 | 5
6 | CC1=NOC(C(C)(C)S(=O)(=O)C2(CN3CCc4c(C(=O)NCc5ccc(C#N)cc5)nn(C)c4C3=O)CC2)C1 (single isomer, unassigned) [Example 112, (R)- or (S)-N-(4-Cyanobenzyl)-1-methyl-6-((1-((2-(3-methyl-4,5-dihydroisoxazol-5-yl)propan-2-yl)sulfonyl)cyclopropyl)methyl)-7-oxo-4,5,6,7-tetrahydro-1H-pyrazolo[3,4-c]pyridine-3-carboxamide] |  |  | 89 | 2
7 | CC(O)CC(C)(C)S(=O)(=O)C1(CN2CCc3c(C(=O)NCc4ccc(C#N)cc4)nn(C)c3C2=O)CC1 (single isomer, unassigned) [Example 115, (R)- or (S)-N-(4-Cyanobenzyl)-6-((1-((4-hydroxy-2-methylpentan-2-yl)sulfonyl)cyclopropyl)methyl)-1-methyl-7-oxo-4,5,6,7-tetrahydro-1H-pyrazolo[3,4-c]pyridine-3-carboxamide] | 3 | 59 | 71 | 
8 | CC(O)CC(C)(C)S(=O)(=O)C1(CN2CCc3c(C(=O)NCc4ccc(C#N)cc4)nn(C)c3C2=O)CC1 (single isomer, unassigned) [Example 116, (R)- or (S)-N-(4-Cyanobenzyl)-6-((1-((4-hydroxy-2-methylpentan-2-yl)sulfonyl)cyclopropyl)methyl)-1-methyl-7-oxo-4,5,6,7-tetrahydro-1H-pyrazolo[3,4-c]pyridine-3-carboxamide] | 2 |  | 48 | 
9 | COCC(C)(CO)S(=O)(=O)C1(CN2CCc3c(C(=O)NCc4ccc(C#N)cc4)nn(C)c3C2=O)CC1 (single isomer, unassigned) [Example 181, (R)- or (S)-N-(4-Cyanobenzyl)-6-((1-((1-hydroxy-3-methoxy-2-methylpropan-2-yl)sulfonyl)cyclopropyl)methyl)-1-methyl-7-oxo-4,5,6,7-tetrahydro-1H-pyrazolo[3,4-c]pyridine-3-carboxamide] | 4 | 77 | 69 | 
10 | COCC(C)(CO)S(=O)(=O)C1(CN2CCc3c(C(=O)NCc4ccc(C#N)cc4)nn(C)c3C2=O)CC1 (single isomer, unassigned) [Example 182, (R)- or (S)-N-(4-Cyanobenzyl)-6-((1-((1-hydroxy-3-methoxy-2-methylpropan-2-yl)sulfonyl)cyclopropyl)methyl)-1-methyl-7-oxo-4,5,6,7-tetrahydro-1H-pyrazolo[3,4-c]pyridine-3-carboxamide] | 2 |  | 46 | 
11 | Cn1nc(C(=O)NCc2ccc(C#N)cc2)c2c1C(=O)N(CC1(S(=O)(=O)C3(C(O)CO)CC3)CC1)CC2 (single isomer, unassigned) [Example 194, (R)- or (S)-N-(4-Cyanobenzyl)-6-((1-((1-(1,2-dihydroxyethyl)cyclopropyl)sulfonyl)cyclopropyl)methyl)-1-methyl-7-oxo-4,5,6,7-tetrahydro-1H-pyrazolo[3,4-c]pyridine-3-carboxamide] | 1 | 50 | 20 | 
12 | Cn1nc(C(=O)NCc2ccc(C#N)cc2)c2c1C(=O)N(CC1(S(=O)(=O)C(C)(C)C(O)C(C)(C)N)CC1)CC2 (single isomer, unassigned) [Example 211, (R)- or (S)-6-((1-((4-Amino-3-hydroxy-2,4-dimethylpentan-2-yl)sulfonyl)cyclopropyl)methyl)-N-(4-cyanobenzyl)-1-methyl-7-oxo-4,5,6,7-tetrahydro-1H-pyrazolo[3,4-c]pyridine-3-carboxamide] | 9 |  | 77 | 
13 | Cn1nc(C(=O)NCc2ccc(C#N)cc2)c2c1C(=O)N(CC1(S(=O)(=O)C(C)(C)C(O)C(C)(C)N)CC1)CC2 (single isomer, unassigned) [Example 212, (R)- or (S)-6-((1-((4-Amino-3-hydroxy-2,4-dimethylpentan-2-yl)sulfonyl)cyclopropyl)methyl)-N-(4-cyanobenzyl)-1-methyl-7-oxo-4,5,6,7-tetrahydro-1H-pyrazolo[3,4-c]pyridine-3-carboxamide] | 3 |  | 39 | 
14 | CC(O)Cn1nc(C(=O)NCc2ccc(C#N)cc2)c2c1C(=O)N(CC1(S(=O)(=O)C3CC3)CC1)CC2 (single isomer, unassigned) [Example 225, (R)- or (S)-N-(4-cyanobenzyl)-6-((1-(cyclopropylsulfonyl)cyclopropyl)methyl)-1-(2-hydroxypropyl)-7-oxo-4,5,6,7-tetrahydro-1H-pyrazolo[3,4-c]pyridine-3-carboxamide] | 4 | 63 | 90 | 
15 | CC(O)Cn1nc(C(=O)NCc2ccc(C#N)cc2)c2c1C(=O)N(CC1(S(=O)(=O)C3CC3)CC1)CC2 (single isomer, unassigned) [Example 226, (R)- or (S)-N-(4-cyanobenzyl)-6-((1-(cyclopropylsulfonyl)cyclopropyl)methyl)-1-(2-hydroxypropyl)-7-oxo-4,5,6,7-tetrahydro-1H-pyrazolo[3,4-c]pyridine-3-carboxamide] | 2 |  | 101 | 
16 | Cn1nc(C(=O)NCc2ccc(C#N)cc2)c2ccn(CC3(S(=O)(=O)C4CC4)CC3)c(=O)c21 [Example 1, N-(4-cyanobenzyl)-6-((1-(cyclopropylsulfonyl)cyclopropyl)methyl)-1-methyl-7-oxo-6,7-dihydro-1H-pyrazolo[3,4-c]pyridine-3-carboxamide] |  | 124 | 269 | 10
17 | Cn1nc(C(=O)NCc2ccc(C#N)cc2)c2ccn(CC3(S(C)(=O)=O)CC3)c(=O)c21 [Example 2, N-(4-Cyanobenzyl)-1-methyl-6-((1-(methylsulfonyl)cyclopropyl)methyl)-7-oxo-6,7-dihydro-1H-pyrazolo[3,4-c]pyridine-3-carboxamide] |  | 536 | 1880 | 27
18 | Cn1nc(C(=O)NCc2ccc(Cl)nc2)c2c1C(=O)N(CC1(S(=O)(=O)C3CC3)CC1)CC2 [Example 7, N-((6-Chloropyridin-3-yl)methyl)-6-((1-(cyclopropylsulfonyl)cyclopropyl)methyl)-1-methyl-7-oxo-4,5,6,7-tetrahydro-1H-pyrazolo[3,4-c]pyridine-3-carboxamide] | 56 | 534 | 861 | 
19 | Cn1nc(C2=NO[C@@H](c3ccc(C#N)cc3)C2)c2c1C(=O)N(CC1(S(=O)(=O)C3CC3)CC1)CC2 [Example 32, (R)-4-(3-(6-((1-(Cyclopropylsulfonyl)cyclopropyl)methyl)-1-methyl-7-oxo-4,5,6,7-tetrahydro-1H-pyrazolo[3,4-c]pyridin-3-yl)-4,5-dihydroisoxazol-5-yl)benzonitrile] | 3 | 41 | 161 | 
20 | Cn1nc(C2=NO[C@H](c3ccc(C#N)cc3)C2)c2c1C(=O)N(CC1(S(=O)(=O)C3CC3)CC1)CC2 [Example 33, (S)-4-(3-(6-((1-(cyclopropylsulfonyl)cyclopropyl)methyl)-1-methyl-7-oxo-4,5,6,7-tetrahydro-1H-pyrazolo[3,4-c]pyridin-3-yl)-4,5-dihydroisoxazol-5-yl)benzonitrile] | 1190 | 9940 | > 25000 | 
